Test results as given in US20190125753A1, “COMPOUNDS AND METHODS FOR INCREASING HEMATOPOIESIS” (University of Southern California, priority 2016, published 2019).

Legend:
mouse bone marrow cells [1] = experiment: 3-day in vitro culture of bone marrow cells, FACS; assay type: cell-based; settings: 0.5 μM, 3 days, 200,000 live cells analyzed
Description: Mouse bone marrow cells were isolated and cultured in QBSF-58 medium with DMSO or YH250 0.5 μM (medium contains 10 ng/ml of SCF, TPO, Flt3 ligand, and IL-6) for 3 days and cells are recovered and analyzed for HSC surface markers with FACS.

[2] = test system: lethally irradiated animals; experiment: Survival after lethal dose whole body radiation; assay type: in vivo, mouse
Description: We next tested if YH250 can rescue animals from lethal dose radiation. […] However, YH250 (2 mg/Kg) administrated 24 hours post radiation rescued 50% of animals (Kaplan-Meier analysis p=0.0002).
With 8.5Gy radiation, all the animals (100%) survived in YH250 treatment group while there are only 30% animals survived in DMSO treatment group (p=0.0016, FIG. 21C). […] In principle, to optimize radiation remediation therapy, it should be advantageous to first (a) symmetrically expand the remaining viable stem cell pool (either HSC or ISC), using a method to enhance symmetric non-differentiative proliferation, i.e., by blocking the p300/catenin interaction thereby enhancing CBP/catenin signaling and (b) subsequently induce the differentiation of the stem cell pool via asymmetric divisions to enhance tissue repair and regeneration as rapidly as possible using a CBP/catenin antagonist. We therefore decided to test sequential administration of the p300/catenin antagonist YH250, followed by subsequent administration of the CBP/catenin antagonist ICG-001. An additional potential therapeutic benefit utilizing a CBP/catenin antagonist would be protection against fibrosis, which is a common chronic complication associated with radiation damage. […] We thus treated mice with either vehicle, YH250 (single 2 mg/Kg s.c., injection at 24 h post irradiation), ICG-001 (single 50 mg/Kg s.c., injection at 24 h post irradiation) or the combination of YH250/ICG-001, with YH250 (2 mg/Kg) given 24 h post irradiation followed by ICG-001 (50 mg/Kg) injection for 5 consecutive days starting at 48 h post-irradiation. After irradiation and the corresponding treatments, no special care was provided. The life-span after irradiation was observed on a daily basis and recorded.

[3] = test system: LSK150+41−48− cells (LTR-HSC); experiment: RNA sequencing of long-term repopulating HSC from treated mice; assay type: in vivo, mouse; settings: 2 mg/kg vs DMSO, 16 hours
Description: DMSO or YH250 (2 mg/kg) were administrated to female C57/Black mice.

bone marrow cells = experiment: Brief (4 h) incubation of bone marrow cells, 14 days culture, FACS; assay type: cell-based, mouse
Description: Bone marrow cells were treated with DMSO or YH250 (0.5 μM) for 4 hours, then the compound was removed and the cells cultured in QBSF-58 medium for 14 days with 10 ng/ml of SCF, TPO, Flt3 ligand, and IL-6. At the end of culture, cells were recovered and analyzed for LSK cells with FACS.
In a further study, female CD45.1 mice bone marrow cells were incubated with DMSO, or YH249 (0.5 μM) or YH250 (0.5 μM) for 4 hrs in QBSF-58 media, then 2×10^4 cells were plated in QBSF-58 medium containing SCF, TPO, Flt3 and IL-6 (10 ng/ml for each) for 14 days. Cells were then recovered from plate for FACS analysis. […] Correspondingly, there are higher LSK cells (52%, 60% and 70% respectively for DMSO, YH249 and YH250). From every 10,000 analyzed cells, LSKCD34negt cell numbers are 437, 663 and 2051 for DMSO, YH249 and YH250 treated cells, respectively.

mouse bone marrow cells [4] = experiment: Colony-forming cell (CFC) assay after 4 h in vitro treatment; assay type: cell-based
Description: Brief (less than 24 hours) treatment of HSC with YH250 or DMSO was conducted before the CFC or CFU-S12 assay. Mouse bone marrow cells were treated with DMSO (solvent control) or YH250 for 4 hours in serum free HSC expansion medium before the cells were recovered for a colony forming assay. 7-8 Days after cell plating in methylcellulose medium (Stemcell Technologies, Methocult GF M3434, Cat#3434), colonies were scored, and the cells from each plate were recovered and counted.
In fact, they also show similar biological functions with respect to HSPC.

[5] = 0.5 μM 4 hours, 14 days in QBSF-58 with SCF, TPO, Flt3 ligand, IL-6
[6] = 4 hours incubation then CFC assay

## COc1cccc(CNC(=O)N2C3CN(Cc4cc(Cl)cc(Cl)c4N(C)C)C(=O)[C@H](Cc4ccc(O)cc4)N3C(=O)CN2C)c1OC (stereo partly drawn) [YH250]
Mouse bone marrow cells [1]
  LSK 48 − 150+ %: 16%
  LSK 135 + 34+ %: 67%
  LSK 135 + 34+ Cell#: 4263
  LSK 135 − 34+ %: 25%
  LSK 135 − 34+ Cell#: 1602
  LSK 135 − 34− %: 7%
  LSK 135 − 34− Cell#: 445
  LSK %: 16%
  LSK Cell#: 6340
  Lin-neg %: 20%
  Lin-neg Cell#: 40015
Mouse bone marrow cells [1]; DMSO 607
  LSK 48 − 150+ Cell#: 992
[2]; 8.5Gy
  body weight vs DMSO: less body weight drop
[2]; 8.5Gy (LD70/60), 2 mg/Kg 24 hours post radiation, DMSO 30%, p=0.0016
  animals survived: 100%
[2]; 9Gy
  body weight: less body weight drop
[2]; 9Gy (LD100/60), 2 mg/Kg 24 hours post radiation, p=0.0002
  animals rescued (survival): 50%
[2]; YH250 2 mg/Kg s.c. 24 h post irradiation, combination followed by ICG-001 50 mg/Kg 5 consecutive days from 48 h
  life-span after irradiation vs control group: significantly extended life-spans
[3]
  Fold-Change A430005L14Rik: 2.07 fold
  Fold-Change Car1: 46.29 fold
  Fold-Change Casp6: 2.56 fold
  Fold-Change Cd52: 3.09 fold
  Fold-Change Cd53: 2.79 fold
  Fold-Change Cd69: 2.44 fold
  Fold-Change Cd74: 2.30 fold
  Fold-Change Cd79a: 5.49 fold
  Fold-Change Cdc123: 2.13 fold
  Fold-Change Dtx3: −2.12 fold
  Fold-Change Gm21897: −2.18 fold
  Fold-Change Gm26377 (miRNA): −58.02 fold
  Fold-Change Ighm: 6.14 fold
  Fold-Change Ighv11-2: 8.18 fold
  Fold-Change Igj: 3.36 fold
  Fold-Change Igkc: 3.93 fold
  Fold-Change Igkv14-126: 8.00 fold
  Fold-Change Igkv19-93: 21.16 fold
  Fold-Change Iglc2: 4.58 fold
  Fold-Change Il2rg: 2.03 fold
  Fold-Change Kcnq1ot1 (antisense): −2.37 fold
  Fold-Change Ldlr: −3.57 fold
  Fold-Change Ly6c2: 7.17 fold
  Fold-Change Mid1: −3.98 fold
  Fold-Change Mrpl30: 2.07 fold
  Fold-Change Ndufaf7: 3.45 fold
  Fold-Change Pias1: 2.02 fold
  Fold-Change Psmf1: 2.48 fold
  Fold-Change RP23-99K18.3 (lincRNA): −2.28 fold
  Fold-Change Tgtp1: 2.85 fold
  Fold-Change Tmed4: 2.06 fold
Bone marrow cells; [5]
  percentage of LSK cells vs DMSO: significantly higher
  percentage of Lineage negative cells vs DMSO: significantly higher
Bone marrow cells; 0.5 μM 4 hrs, 14 days culture, DMSO 9%
  lineage negative cell: 33%
Bone marrow cells; 0.5 μM 4 hrs, 14 days culture, DMSO 52%
  LSK cells: 70%
Bone marrow cells; from every 10,000 analyzed cells, 0.5 μM 4 hrs, 14 days culture, DMSO 437
  LSKCD34negt cell numbers: 2051
Mouse bone marrow cells [4]; [6]
  CELL#/plate: 9.5 × 10^5
  CFC#/plate: 29
Mouse bone marrow cells [4]; 4 hours treatment, serum free medium, scored 7-8 days after plating
  CFC colony number vs DMSO: not significantly different
Mouse bone marrow cells [4]; 4 hours treatment, cells recovered from plate
  cell number in each plate vs DMSO: increased cell number in each plate
